# Values of other authors, collected in US11648202B2, “Hydroxychloroquine sulfate formulations and methods for preparation and use thereof” (Research Triangle Institute, priority 2017, dated 2023).
# Counter-ions that a name gives are not always drawn.
smiles,measurement,value
"CCN(CCO)CCCC(C)Nc1ccnc2cc(Cl)ccc12 (stereo not shown) [HCQS, hydroxychloroquine sulfate]",pKa of the amine,about 9.4
